Numbers after ± are expanded uncertainties.
Tests used:
[1] = activity coefficient (dimensionless); of the first substance listed, at infinite dilution; xn = mol fraction of the nth substance listed; settings: 101 kPa, Liquid, Chromatography, x1 = 0
[2] = 100 kPa, Liquid, Vibrating tube method

SMILES	activity coefficient ([1]; 358.15 K)	activity coefficient ([1]; 368.15 K)	activity coefficient ([1]; 378.15 K)	activity coefficient ([1]; 388.15 K)	other results
CC(C)=O [acetone] + CCCCn1cc[n+](C)c1.COP(=O)([O-])OC	1.92 ± 0.13	1.96 ± 0.13	2.02 ± 0.14	2.1 ± 0.14	
C=C(C)c1ccccc1 [(1-methylethenyl)benzene] + CCCCn1cc[n+](C)c1.CS(=O)(=O)[O-]	6.43 ± 0.44	6.71 ± 0.46	6.96 ± 0.47	7.41 ± 0.51	
C=C(C)c1ccccc1 [(1-methylethenyl)benzene] + CCCCn1cc[n+](C)c1.[Cl-]	9.01 ± 0.61	9.33 ± 0.64	9.83 ± 0.67	10.3 ± 0.71	
C#CCCCCCC [1-octyne] + CCCCn1cc[n+](C)c1.[Cl-]	18.3 ± 1.2	19.2 ± 1.3	19.7 ± 1.4	20.4 ± 1.4	
CCCO [propan-1-ol] + CCCCn1cc[n+](C)c1.CS(=O)(=O)[O-]					activity coefficient ([1]; 398.15 K): 0.711 ± 0.047; activity coefficient ([1]; 408.15 K): 0.744 ± 0.049; activity coefficient ([1]; 418.15 K): 0.783 ± 0.051; activity coefficient ([1]; 428.15 K): 0.823 ± 0.053
CCCO [propan-1-ol] + CCCCn1cc[n+](C)c1.[Cl-]					activity coefficient ([1]; 398.15 K): 0.408 ± 0.034; activity coefficient ([1]; 408.15 K): 0.434 ± 0.035; activity coefficient ([1]; 418.15 K): 0.464 ± 0.036; activity coefficient ([1]; 428.15 K): 0.501 ± 0.038
C#CCCC [1-pentyne] + CCCCn1cc[n+](C)c1.[Cl-]	4.89 ± 0.33	5.25 ± 0.36	5.51 ± 0.38	5.78 ± 0.39	
C1=CCCCC1 [cyclohexene] + CCCCn1cc[n+](C)c1.COP(=O)([O-])OC	7.15 ± 0.49	7.13 ± 0.49	7.11 ± 0.48	7.11 ± 0.48	
O [water] + CCCCn1cc[n+](C)c1.CS(=O)(=O)[O-]					activity coefficient ([1]; 398.15 K): 0.2 ± 0.029; activity coefficient ([1]; 408.15 K): 0.214 ± 0.029; activity coefficient ([1]; 418.15 K): 0.228 ± 0.029; activity coefficient ([1]; 428.15 K): 0.239 ± 0.029
CCOC(C)=O [ethyl acetate] + CCCCn1cc[n+](C)c1.[Cl-]	9.02 ± 0.62	9.06 ± 0.62	9.1 ± 0.62	9.16 ± 0.62	
CCCCn1cc[n+](C)c1.CS(=O)(=O)[O-] [1-butyl-3-methylimidazolium methanesulfonate]					mass density ([2]; 333.15 K): 1150.6 ± 1.1 kg/m3; mass density ([2]; 338.15 K): 1147.4 ± 1.1 kg/m3; mass density ([2]; 343.15 K): 1144.3 ± 1.1 kg/m3; mass density ([2]; 348.15 K): 1141.2 ± 1 kg/m3; mass density ([2]; 353.15 K): 1137.9 ± 1 kg/m3; mass density ([2]; 358.15 K): 1134.9 ± 1 kg/m3; mass density ([2]; 363.15 K): 1131.9 ± 1 kg/m3; mass density ([2]; 368.15 K): 1128.8 ± 1 kg/m3; mass density ([2]; 373.15 K): 1125.8 ± 1 kg/m3
C=Cc1ccccc1 [styrene] + CCCCn1cc[n+](C)c1.CS(=O)(=O)[O-]	3.79 ± 0.26	3.96 ± 0.27	4.2 ± 0.29	4.4 ± 0.3	
CCCOCCC [dipropyl ether] + CCCCn1cc[n+](C)c1.COP(=O)([O-])OC	13.9 ± 0.95	13.7 ± 0.94	13.6 ± 0.93	13.4 ± 0.92	
C=COC(C)=O [vinyl acetate] + CCCCn1cc[n+](C)c1.COP(=O)([O-])OC	2.79 ± 0.19	2.88 ± 0.2	2.99 ± 0.2	3.13 ± 0.21	
C1CCCCCCC1 [cyclooctane] + CCCCn1cc[n+](C)c1.[Cl-]	79.5 ± 5.5	75.4 ± 5.2	71.1 ± 4.9	68.6 ± 4.7	
C1CCCCC1 [cyclohexane] + CCCCn1cc[n+](C)c1.[Cl-]	84.2 ± 5.8	79 ± 5.4	73 ± 5	69.8 ± 4.8	
CCCCn1cc[n+](C)c1.COP(=O)([O-])OC [1-butyl-3-methyl-1H-imidazolium dimethylphosphate]					mass density ([2]; 293.15 K): 1166.5 ± 1.5 kg/m3; mass density ([2]; 298.15 K): 1163.2 ± 1.5 kg/m3; mass density ([2]; 303.15 K): 1159.4 ± 1.5 kg/m3; mass density ([2]; 308.15 K): 1156.2 ± 1.5 kg/m3; mass density ([2]; 313.15 K): 1152.7 ± 1.5 kg/m3; mass density ([2]; 318.15 K): 1149.5 ± 1.5 kg/m3; mass density ([2]; 323.15 K): 1146.1 ± 1.4 kg/m3; mass density ([2]; 328.15 K): 1143 ± 1.4 kg/m3; mass density ([2]; 333.15 K): 1139.7 ± 1.4 kg/m3; mass density ([2]; 338.15 K): 1136.5 ± 1.4 kg/m3; mass density ([2]; 343.15 K): 1133.3 ± 1.4 kg/m3; mass density ([2]; 348.15 K): 1130.1 ± 1.4 kg/m3; mass density ([2]; 353.15 K): 1126.9 ± 1.4 kg/m3; mass density ([2]; 358.15 K): 1123.7 ± 1.4 kg/m3; mass density ([2]; 363.15 K): 1120.6 ± 1.4 kg/m3; mass density ([2]; 368.15 K): 1117.4 ± 1.4 kg/m3
CCC(=O)CC [pentan-3-one] + CCCCn1cc[n+](C)c1.COP(=O)([O-])OC	3.73 ± 0.25	3.81 ± 0.26	3.89 ± 0.26	4.04 ± 0.28	
COC(C)=O [methyl ethanoate] + CCCCn1cc[n+](C)c1.[Cl-]	4.82 ± 0.33	4.89 ± 0.33	5.01 ± 0.34	5.09 ± 0.35	
CC(C)OC(C)C [diisopropyl ether] + CCCCn1cc[n+](C)c1.CS(=O)(=O)[O-]	40.6 ± 2.8		40.8 ± 2.8	41.2 ± 2.8	

SMILES	activity coefficient ([1]; 358.15 K)	activity coefficient ([1]; 368.15 K)	activity coefficient ([1]; 378.15 K)	activity coefficient ([1]; 388.15 K)	other results
CCO [ethanol] + CCCCn1cc[n+](C)c1.CS(=O)(=O)[O-]					activity coefficient ([1]; 398.15 K): 0.533 ± 0.039; activity coefficient ([1]; 408.15 K): 0.553 ± 0.04; activity coefficient ([1]; 418.15 K): 0.576 ± 0.041; activity coefficient ([1]; 428.15 K): 0.599 ± 0.042
Cc1ccc(C)cc1 [1,4-dimethylbenzene] + CCCCn1cc[n+](C)c1.[Cl-]	13.6 ± 0.93	13.7 ± 0.94	14 ± 0.96	14.3 ± 0.98	
C1CCCCC1 [cyclohexane] + CCCCn1cc[n+](C)c1.COP(=O)([O-])OC	12.3 ± 0.84	11.9 ± 0.81	11.6 ± 0.79	11.4 ± 0.78	
CC(C)CO [2-methyl-1-propanol] + CCCCn1cc[n+](C)c1.[Cl-]					activity coefficient ([1]; 398.15 K): 0.54 ± 0.039; activity coefficient ([1]; 408.15 K): 0.576 ± 0.041; activity coefficient ([1]; 418.15 K): 0.615 ± 0.043; activity coefficient ([1]; 428.15 K): 0.665 ± 0.045
CC(C)(C)O [2-methylpropan-2-ol] + CCCCn1cc[n+](C)c1.COP(=O)([O-])OC					activity coefficient ([1]; 398.15 K): 0.419 ± 0.035; activity coefficient ([1]; 408.15 K): 0.471 ± 0.037; activity coefficient ([1]; 418.15 K): 0.527 ± 0.039; activity coefficient ([1]; 428.15 K): 0.592 ± 0.042
C1CCOC1 [tetrahydrofuran] + CCCCn1cc[n+](C)c1.COP(=O)([O-])OC	2.79 ± 0.19	2.84 ± 0.19	2.89 ± 0.2	3.02 ± 0.21	
CCC(C)(C)OC [2-methoxy-2-methylbutane] + CCCCn1cc[n+](C)c1.CS(=O)(=O)[O-]	23.8 ± 1.6	24.2 ± 1.6	24.7 ± 1.7	25.3 ± 1.7	
C=CCCCCCCCC [1-decene] + CCCCn1cc[n+](C)c1.COP(=O)([O-])OC	53.5 ± 3.7	52.2 ± 3.6	50.4 ± 3.5	49.2 ± 3.4	
CCc1ccccc1 [ethylbenzene] + CCCCn1cc[n+](C)c1.CS(=O)(=O)[O-]	8.45 ± 0.58	8.61 ± 0.59	8.76 ± 0.6	9.05 ± 0.62	
c1ccccc1 [benzene] + CCCCn1cc[n+](C)c1.[Cl-]	4.51 ± 0.31	4.59 ± 0.31	4.72 ± 0.32	4.82 ± 0.33	
C=CCCCCCC [oct-1-ene] + CCCCn1cc[n+](C)c1.[Cl-]	142 ± 9.7	134 ± 9.2	126 ± 8.6	122 ± 8.4	
CCc1ccccc1 [ethylbenzene] + CCCCn1cc[n+](C)c1.COP(=O)([O-])OC	5.73 ± 0.39	5.87 ± 0.4	5.97 ± 0.41	6.26 ± 0.43	
CCO [ethanol] + CCCCn1cc[n+](C)c1.COP(=O)([O-])OC					activity coefficient ([1]; 398.15 K): 0.16 ± 0.029; activity coefficient ([1]; 408.15 K): 0.173 ± 0.029; activity coefficient ([1]; 418.15 K): 0.189 ± 0.029; activity coefficient ([1]; 428.15 K): 0.205 ± 0.029
CCOC(C)(C)C [2-ethoxy-2-methylpropane] + CCCCn1cc[n+](C)c1.CS(=O)(=O)[O-]	35.3 ± 2.4	35.6 ± 2.4	36.1 ± 2.5	36.6 ± 2.5	
C=C(C)c1ccccc1 [(1-methylethenyl)benzene] + CCCCn1cc[n+](C)c1.COP(=O)([O-])OC	4.57 ± 0.31	4.77 ± 0.33	4.98 ± 0.34	5.29 ± 0.36	
c1ccccc1 [benzene] + CCCCn1cc[n+](C)c1.COP(=O)([O-])OC	2.33 ± 0.16	2.41 ± 0.16	2.49 ± 0.17	2.63 ± 0.18	
C1CCCCCC1 [cycloheptane] + CCCCn1cc[n+](C)c1.CS(=O)(=O)[O-]	44.2 ± 3	43.3 ± 3	42.6 ± 2.9	42.2 ± 2.9	
CC1CCCCC1 [methylcyclohexane] + CCCCn1cc[n+](C)c1.COP(=O)([O-])OC	17.4 ± 1.2	16.8 ± 1.1	16.4 ± 1.1	16.1 ± 1.1	
C#CCCCCC [1-heptyne] + CCCCn1cc[n+](C)c1.[Cl-]	11.6 ± 0.79	12.3 ± 0.84	12.7 ± 0.87	13.3 ± 0.91	

Source: the NIST ThermoML archive (doi:10.1016/j.jct.2015.07.042)
